Source: patent publication US11098029B2, “5-alkyl pyrrolidine orexin receptor agonists” (Merck Sharp & Dohme Corp., priority 2019, dated 2021)
pIC50: −log10 of the molar value.

The compounds below were run against human OX2R (Homo sapiens (Human), UniProt O43614) (assay: IPOne (IP-One, Cisbio) orexin receptor agonist assay in CHO cells expressing human OX2R). Details: not given.
human OX2R, sequence (O43614 whole entry): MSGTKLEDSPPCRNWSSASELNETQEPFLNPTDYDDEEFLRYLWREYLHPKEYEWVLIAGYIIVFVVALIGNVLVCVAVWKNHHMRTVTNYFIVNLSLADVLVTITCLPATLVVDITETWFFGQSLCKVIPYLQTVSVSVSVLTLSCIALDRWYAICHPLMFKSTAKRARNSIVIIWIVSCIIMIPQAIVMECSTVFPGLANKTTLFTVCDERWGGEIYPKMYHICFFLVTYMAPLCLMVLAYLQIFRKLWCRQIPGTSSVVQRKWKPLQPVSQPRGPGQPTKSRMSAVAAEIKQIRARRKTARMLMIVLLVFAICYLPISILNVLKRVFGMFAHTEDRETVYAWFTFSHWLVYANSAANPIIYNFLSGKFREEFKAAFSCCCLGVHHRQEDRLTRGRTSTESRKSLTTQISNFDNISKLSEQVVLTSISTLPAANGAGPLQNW
With `COC(=O)N1[C@H](C)C[C@H](NS(=O)(=O)N(C)C)[C@@H]1CO[C@@H]1CC=C(c2cccc(F)c2)CC1` [Example 35, methyl (2R,3S,5R)-3-((N,N-dimethylsulfamoyl)amino)-2-((((S)-3′-fluoro-2,3,4,5-tetrahydro-[1,1′-biphenyl]-4-yl)oxy)methyl)-5-methylpyrrolidine-1-carboxylate] the pIC50 was 7.90.

Same assay, conditions: CHO, hOX2R_IP; percentage of mean max effect of a reference compound at 1 uM (100% activity vs Orexin A)
`COC(=O)N1[C@H](C)C[C@H](NS(=O)(=O)N(C)C)[C@@H]1COC1CCC(C(F)(F)F)CC1` (stereo partly drawn) [Example 11, methyl (2R,3S,5R)-3-((N,N-dimethylsulfamoyl)amino)-5-methyl-2-(((4-(trifluoromethyl)cyclohexyl)oxy)methyl)pyrrolidine-1-carboxylate] gave an Emax of 99%.
Work on `COC(=O)N1[C@H](C)C[C@H](NS(=O)(=O)N(C)C)[C@@H]1CO[C@@H]1CC[C@H](c2ccccc2)CC1F` (stereo partly drawn) [Example 30, methyl (2R,3S,5R)-3-((N,N-dimethylsulfamoyl)amino)-2-((((1R,4S)-2-fluoro-4-phenylcyclohexyl)oxy)methyl)-5-methylpyrrolidine-1-carboxylate] yielded an Emax of 100%.
`COC(=O)N1[C@H](C)C[C@H](NS(=O)(=O)N(C)C)[C@@H]1CO[C@@H]1CC=C(c2cccc(F)c2)CC1` [Example 35, methyl (2R,3S,5R)-3-((N,N-dimethylsulfamoyl)amino)-2-((((S)-3′-fluoro-2,3,4,5-tetrahydro-[1,1′-biphenyl]-4-yl)oxy)methyl)-5-methylpyrrolidine-1-carboxylate] was tested, and the Emax was 102%.
Compound `COC(=O)N1[C@H](C)C[C@H](NS(C)(=O)=O)[C@@H]1CO[C@H]1CC[C@@H](c2cc(F)ccc2F)CC1` [Example 20, methyl (2R,3S,5R)-2-((((1r,4R)-4-(2,5-difluorophenyl)cyclo-hexyl)oxy)methyl)-5-methyl-3-(methylsulfona-mido)pyrrolidine-1-carboxylate] has an Emax of 102%.
For `CCOC(=O)N1[C@H](C)C[C@H](NS(=O)(=O)N(C)C)[C@@H]1COC1CCC(C(C)C)CC1` (stereo partly drawn) [Example 8, ethyl (2R,3S,5R)-3-((N,N-dimethylsulfamoyl)amino)-2-(((4-isopropylcyclohexyl)oxy)meth-yl)-5-methylpyrrolidine-1-carboxylate], the Emax was 101%.
`COCCS(=O)(=O)N[C@H]1C[C@@H](C)N(C(=O)OC)[C@H]1COC1CCC(c2cccc(F)c2)CC1` (stereo partly drawn) [Example 61] gave an Emax of 105%.
Work on `COC(=O)N1[C@H](C)C[C@H](NS(=O)(=O)N(C)C)[C@@H]1CO[C@@H]1CC[C@H](c2cccc(F)c2)CC1F` (stereo partly drawn) [Example 31, methyl (2R,3S,5R)-3-((N,N-dimethylsulfamoyl)amino)-2-((((1R,4S)-2-fluoro-4-(3-fluorophenyl)cyclohexyl)oxy)methyl)-5-methylpyrrolidine-1-carboxylate] yielded an Emax of 100%.
`COC(=O)N1[C@H](C)C[C@H](NS(C)(=O)=O)[C@@H]1COC1CCC(CC(F)(F)F)CC1` (stereo partly drawn) [Example 12, methyl (2R,3S,5R)-5-methyl-3-(methylsulfonamido)-2-(((4-(2,2,2-trifluoroethyl)cyclohexyl)oxy)methyl)pyrrolidine-1-carboxylate] showed an Emax of 99%.
For `COC(=O)N1[C@H](C)C[C@H](NS(=O)(=O)CF)[C@@H]1COC1CCC(c2cccc(F)c2)CC1` (stereo partly drawn) [Example 62, methyl (2R,3S,5R)-3-((fluoromethyl)sulfona-mido)-2-((((1s,4S)-4-(3-fluorophenyl)cyclohex-yl)oxy)methyl)-5-methylpyrrolidine-1-carboxylate], the Emax was 98%.
Compound `COC(=O)N1[C@H](C)C[C@H](NS(C)(=O)=O)[C@@H]1COC1CCC(C(C)C)CC1` (stereo partly drawn) [Example 3, methyl (2R,3S,5R)-2-(((4-isopropylcyclohexyl)oxy)methyl)-5-methyl-3-(methylsulfonamido)pyrrolidine-1-carboxylate] has an Emax of 98%.
Work on `COC(=O)N1C(C2CC2)C[C@H](NS(C)(=O)=O)C1COC1CCC(c2ccccc2)CC1` (stereo partly drawn) [Example 44, methyl (CIS)-5-cyclopropyl-3-(methylsulfonamido)-2-((((CIS)-4-phenylcyclohexyl)oxy)methyl)pyrrolidine-1-carboxylate] yielded an Emax of 101%.
`CC[C@@H]1C[C@H](NS(C)(=O)=O)[C@H](CO[C@H]2CC[C@@H](c3ccccc3)CC2)N1C(=O)OC` [Example 46, methyl (2R,3S,5R)-5-ethyl-3-(methylsulfonamido)-2-((((CIS)-4-phenylcyclohexyl)oxy)methyl)pyrrolidine-1-carboxylate] was tested, and the Emax was 101%.
With `COC(=O)N1[C@H](C)C[C@H](NS(=O)(=O)N(C)C)[C@@H]1CO[C@H]1CC[C@@H](c2cc(F)ccc2F)CC1` [Example 21, methyl (2R,3S,5R)-2-((((1R,4R)-4-(2,5-difluorophenyl)cyclohexyl)oxy)methyl)-3-((N,N-dimethylsulfa-moyl)amino)-5-methylpyrrolidine-1-carboxylate] the Emax was 101%.
For `COC(=O)N1[C@H](C)C[C@H](NS(=O)(=O)CF)[C@@H]1CO[C@H]1CC[C@@H](c2cccc(F)c2)CC1` [Example 26, methyl (2R,3S,5R)-3-((fluoromethyl)sulfonamido)-2-((((1s,4S)-4-(3-fluorophenyl)cyclohexyl)oxy)methyl)-5-methylpyrrolidine-1-carboxylate], the Emax was 98%.
`COC[C@@H]1C[C@H](NS(=O)(=O)N(C)C)[C@H](CO[C@H]2CC[C@@H](c3cccc(F)c3)CC2)N1C(=O)OC` [Example 51, methyl (2R,3S,5S)-3-((N,N-dimethylsulfamoyl)amino)-2-((((CIS)-4-(3-fluorophenyl)cyclohexyl)-oxy)methyl)-5-(methoxymethyl)pyrrolidine-1-carboxylate] was tested, and the Emax was 101%.

Same assay, conditions: hOX2R_IP; percentage of mean max effect of a reference compound at 1 uM (100% activity vs Orexin A)
With `COC(=O)N1[C@H](C)C[C@H](NS(=O)(=O)N(C)C)[C@@H]1CO[C@H]1CC[C@H](c2ccc(C#N)c(C)c2)CC1` [Example 64, Methyl (2R,3S,5R)-2-((((1r,4R)-4-(4-cyano-3-methylphenyl)cyclohexyl)oxy)methyl)-3-((N,N-dimethylsulfamoyl)amino)-5-methylpyrrolidine-1-carboxylate] the “Emax (%)” value was 99%.
`COC(=O)N1[C@H](C)C[C@H](NS(=O)(=O)N(C)CCO)[C@@H]1CO[C@H]1CC[C@@H](c2cccc(F)c2)CC1` [Example 56, methyl (2R,3S,5R)-2-((((1s,4S)-4-(3-fluorophenyl)cyclohex-yl)oxy)methyl)-3-((N-(2-hydroxyethyl)-N-methylsulfamoyl)amino)-5-methylpyrrolidine-1-carboxylate] was tested, and the “Emax (%)” value was 101%.
In the case of `COC(=O)N1[C@H](C)C[C@H](NS(=O)(=O)N(C)C)[C@@H]1CO[C@H]1CC[C@@H](c2ccccc2)CC1` [Example 19, methyl (2R,3S,5R)-3-((N,N-dimethylsulfamoyl)amino)-5-methyl-2-((((1s,4S)-4-phenylcyclohexyl)-oxy)methyl)pyrrolidine-1-carboxylate], the “Emax (%)” value was 100%.
`C=C[C@@H]1C[C@H](NS(C)(=O)=O)[C@H](CO[C@H]2CC[C@@H](c3ccccc3)CC2)N1C(=O)OC` (relative stereo) [Example 48, methyl (CIS)-3-(methylsulfonamido)-2-((((CIS)-4-phenylcyclohexyl)oxy)methyl)-5-vinylpyrrolidine-1-carboxylate] was tested, and the “Emax (%)” value was 102%.
For `CCC1CC(NS(C)(=O)=O)C(CO[C@H]2CC[C@@H](c3ccccc3)CC2)N1C(=O)OC` (stereo partly drawn) [Example 40, methyl (CIS)-5-ethyl-3-(methylsulfonamido)-2-((((CIS)-4-phenylcyclohexyl)oxy)-methyl)pyrrolidine-1-carboxylate], the “Emax (%)” value was 100%.
In the case of “methyl (CIS)-5-ethynyl-3-(methylsulfonamido)-2-((((CIS)-4-phenylcyclohexyl)oxy)methyl)-pyrrolidine-1-carboxylate [Example 47]”, the “Emax (%)” value was 101%.
For `COC(=O)N1[C@H](C)C[C@H](NS(C)(=O)=O)[C@@H]1CO[C@H]1CC[C@@H](C(C)C)CC1` [Example 4, methyl (2R,3S,5R)-2-((((1s,4S)-4-isopropylcyclohexyl)oxy)methyl)-5-methyl-3-(methylsulfonamido)pyrrolidine-1-carboxylate], the “Emax (%)” value was 102%.
With `COC(=O)N1[C@H](C)C[C@H](NS(=O)(=O)N(C)CCS(C)(=O)=O)[C@@H]1COC1CCC(c2cccc(F)c2)CC1` (stereo partly drawn) [Example 57, methyl (2R,3S,5R)-2-((((1s,4S)-4-(3-fluorophenyl)cyclohex-yl)oxy)methyl)-5-methyl-3-((N-methyl-N-(2-(methyslulfonyl)-ethyl)sulfamoyl)amino) pyrrolidine-1-carboxylate] the “Emax (%)” value was 100%.
With `COCCN(C)S(=O)(=O)N[C@H]1C[C@@H](C)N(C(=O)OC)[C@H]1CO[C@H]1CC[C@@H](c2cccc(F)c2)CC1` [Example 55, methyl (2R,3S,5R)-2-((((1s,4S)-4-(3-fluorophenyl)cyclohex-yl)oxy)methyl)-3-((N-(2-methoxyethyl)-N-methylsulfamoyl)amino)-5-methylpyrrolidine-1-carboxylate] the “Emax (%)” value was 100%.
With `COC(=O)N1[C@H](C)C[C@H](NS(C)(=O)=O)[C@@H]1CO[C@H]1CC[C@@H](c2ncccn2)CC1` [Example 70, Methyl (2R,3S,5R)-5-methyl-3-(methylsulfonamido)-2-((((1s,4S)-4-(pyrimidin-2-yl)cyclohexyl)oxy)methyl)pyrrolidine-1-carboxylate] the “Emax (%)” value was 99%.
`COC(=O)N1[C@H](C)C[C@H](NS(=O)(=O)CF)[C@@H]1CO[C@H]1CC[C@@H](c2cccc(F)c2)CC1` [Example 26, methyl (2R,3S,5R)-3-((fluoromethyl)sulfonamido)-2-((((1s,4S)-4-(3-fluorophenyl)cyclohexyl)oxy)methyl)-5-methylpyrrolidine-1-carboxylate] was tested, and the “Emax (%)” value was 102%.
`C[C@@H]1C[C@H](NS(=O)(=O)N(C)C)[C@H](CO[C@H]2CC[C@@H](c3ccccc3)CC2)N1C(=O)OCC(F)F` [Example 17, 2,2-difluoroethyl (2R,3S,5R)-3-((N,N-dimethylsulfamoyl)amino)-5-methyl-2-((((1s,4S)-4-phenylcyclohexyl)oxy)methyl)pyrrolidine-1-carboxylate] was tested, and the “Emax (%)” value was 102%.
For `COC(=O)N1[C@H](C)C[C@H](NS(=O)(=O)CC(F)F)[C@@H]1CO[C@H]1CC[C@@H](c2cccc(F)c2)CC1` [Example 60, Methyl (2R,3S,5R)-3-((2,2-difluoroethyl)sulfonamido)-2-((((1s,4S)-4-(3-fluorophenyl)-cyclohexyl)oxy)methyl)-5-methylpyrrolidine-1-carboxylate], the “Emax (%)” value was 99%.
For `COC(=O)N1[C@H](C)C[C@H](NS(=O)(=O)N(C)CCOC(F)(F)F)[C@@H]1CO[C@H]1CC[C@@H](c2cccc(F)c2)CC1` [Example 59, methyl (2R,3S,5R)-2-((((1s,4S)-4-(3-fluorophenyl)cyclohex-yl)oxy)methyl)-5-methyl-3-((N-methyl-N-(2-(trifluoromethoxy)ethyl)sulfamoyl)amino)pyrro-lidine-1-carboxylate], the “Emax (%)” value was 99%.
